Key:
Assay type in all cases: biochemical
[1] = molecular target: T1, catalytic domain of MMP-3 enzyme (Homo sapiens, UniProt P08254); test: Assay for determining MMP-3 inhibition (NFF-3 fluorescent substrate); conditions: read-out: MMP-3 Activity (IC50 MMP-3), Group
T1 construct: catalytic domain of MMP-3 enzyme (Biomol, Cat. No. SE-109); purchased Biomol SE-109
Procedure: The typical assay for MMP-3 activity is carried out in assay buffer comprised of 50 mM MES, pH 6.0, 10 mM CaCl2 and 0.05% Brij-35. Different concentrations of tested compounds are prepared in assay buffer in 50 μL aliquots. 10 μL of a 100 nM stock solution of the catalytic domain of MMP-3 enzyme (Biomol, Cat. No. SE-109) is added to the compound solution. The mixture of enzyme and compound in assay buffer is thoroughly mixed and incubated for 10 min at room temperature. Upon the completion of incubation, the assay is started by addition of 40 μL of a 12.5 μM stock solution of NFF-3 fluorescent substrate (Calbiochem, Cat. No. 480455). The time-dependent increase in fluorescence is measured at the 330 nm excitation and 390 nm emission by an automatic plate multireader. The IC50 values are calculated from the initial reaction rates.

[2] = molecular target: T2, catalytic domain of MMP-13 enzyme (Homo sapiens, UniProt P45452); test: Assay for determining MMP-13 inhibition (fluorescent substrate); conditions: read-out: MMP-13 Activity (IC50 MMP-13), Group
T2 construct: catalytic domain of MMP-13 enzyme (produced by Alantos or commercially available from Invitek (Berlin), Cat. # 30100812); purchased Invitek (Berlin) 30100812
Procedure: The typical assay for MMP-13 activity is carried out in assay buffer comprised of 50 mM Tris, pH 7.5, 150 mM NaCl, 5 mM CaCl2 and 0.05% Brij-35. Different concentrations of tested compounds are prepared in assay buffer in 50 μL aliquots. 10 μL of a 50 nM stock solution of catalytic domain of MMP-13 enzyme (produced by Alantos or commercially available from Invitek (Berlin), Cat. # 30100812) is added to the compound solution. The mixture of enzyme and compound in assay buffer is thoroughly mixed and incubated for 10 min at room temperature. Upon the completion of incubation, the assay is started by addition of 40 μl of a 12.5 μM stock solution of MMP-13 fluorescent substrate (Calbiochem, Cat. No. 444235). The time-dependent increase in fluorescence is measured at the 320 nm excitation and 390 nm emission by automatic plate multireader. The IC50 values are calculated from the initial reaction rates.

activated MMP-8 enzyme = molecular target: T3, activated MMP-8 enzyme (Homo sapiens, UniProt P22894); test: Assay for determining MMP-8 inhibition (OmniMMP fluorescent substrate); conditions: read-out: MMP-8 Activity (IC50 MMP-8), Group
T3 construct: purchased Calbiochem 444229
Procedure: The typical assay for MMP-8 activity is carried out in assay buffer comprised of 50 mM Tris, pH 7.5, 150 mM NaCl, 5 mM CaCl2 and 0.05% Brij-35. Different concentrations of tested compounds are prepared in assay buffer in 50 μL aliquots. 10 μL of a 50 nM stock solution of activated MMP-8 enzyme (Calbiochem, Cat. No. 444229) is added to the compound solution. The mixture of enzyme and compound in assay buffer is thoroughly mixed and incubated for 10 min at 37° C. Upon the completion of incubation, the assay is started by addition of 40 μL of a 10 μM stock solution of OmniMMP fluorescent substrate (Biomol, Cat. No. P-126). The time-dependent increase in fluorescence is measured at the 320 nm excitation and 390 nm emission by an automatic plate multireader at 37° C. The IC50 values are calculated from the initial reaction rates.

T1 sequence (P08254 100-272 limits assumed): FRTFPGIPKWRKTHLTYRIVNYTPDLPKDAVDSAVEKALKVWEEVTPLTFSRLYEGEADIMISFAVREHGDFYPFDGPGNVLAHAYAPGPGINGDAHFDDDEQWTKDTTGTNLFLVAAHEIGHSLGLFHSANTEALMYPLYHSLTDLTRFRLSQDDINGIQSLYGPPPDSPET
T3 sequence (P22894 101-467): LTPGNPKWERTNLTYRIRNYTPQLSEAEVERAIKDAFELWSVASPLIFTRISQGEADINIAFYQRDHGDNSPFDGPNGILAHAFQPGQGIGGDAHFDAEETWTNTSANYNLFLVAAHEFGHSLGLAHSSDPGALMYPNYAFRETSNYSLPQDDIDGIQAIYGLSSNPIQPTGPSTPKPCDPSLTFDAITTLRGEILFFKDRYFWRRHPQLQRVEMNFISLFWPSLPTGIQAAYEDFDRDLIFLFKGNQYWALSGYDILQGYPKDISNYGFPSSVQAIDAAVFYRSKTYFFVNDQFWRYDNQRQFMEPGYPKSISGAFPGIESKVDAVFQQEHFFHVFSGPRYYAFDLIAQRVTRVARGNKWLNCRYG

IC50 [1] [µM]	IC50 [2] [µM]	IC50 (activated MMP-8 enzyme) [µM]	Compound
< 0.25	< 0.1	0.25 to 20	Nc1c(N2CCc3ccc(CNC(=O)c4nc5scc(-c6cccs6)c5c(=O)[nH]4)cc3C2)c(=O)c1=O [2/51]
0.25 to 20	< 0.1	< 0.25	Cc1c(Br)sc2nc(C(=O)NCc3ccc4c(c3)NC(=O)CO4)[nH]c(=O)c12 [2/11]
0.25 to 20	< 0.1	0.25 to 20	COC(=O)c1cccc2nc(C(=O)NCc3ccc4c(c3)NC(=O)CO4)[nH]c(=O)c12 [Example 36]
0.25 to 20	< 0.1	< 0.25	O=C1COc2ccc(CNC(=O)c3nc4ccc(CNC(=O)c5ccccc5)cc4c(=O)[nH]3)cc2N1 [2/93]
< 0.25	< 0.1	< 0.25	N#CCc1csc2nc(C(=O)NCc3ccc4c(c3)NC(=O)CO4)[nH]c(=O)c12 [Example 19]
< 0.25	< 0.1	0.25 to 20	O=C1COc2ccc(CNC(=O)c3nc4scc(-c5nccs5)c4c(=O)[nH]3)cc2N1 [2/265]
0.25 to 20	< 0.1	< 0.25	O=C1COc2ccc(CNC(=O)c3nc4cc(Br)ccc4c(=O)[nH]3)cc2N1 [2/39]
0.25 to 20	< 0.1	0.25 to 20	O=C1COc2ccc(CNC(=O)c3nc4ccsc4c(=O)[nH]3)cc2N1 [2/20]
< 0.25	< 0.1	< 0.25	N#Cc1ccc2nc(C(=O)NCc3ccc4c(c3)NC(=O)CO4)[nH]c(=O)c2c1 [Example 9]
0.25 to 20	< 0.1	< 0.25	Cc1sc2nc(C(=O)NCc3ccc4c(c3)NC(=O)CO4)[nH]c(=O)c2c1C [2/46]
< 0.25	< 0.1	< 0.25	Cc1c(CC(=O)O)sc2nc(C(=O)NCc3ccc4c(c3)CN(c3c(N)c(=O)c3=O)CC4)[nH]c(=O)c12 [4/13]
< 0.25	< 0.1	< 0.25	O=C1COc2ccc(CNC(=O)c3nc4ccc(Br)cc4c(=O)[nH]3)cc2N1 [Example 2/21]
0.25 to 20	< 0.1	< 0.25	C[C@@H](NC(=O)c1ccccc1)c1ccc2nc(C(=O)NCc3ccc4c(c3)NC(=O)CO4)[nH]c(=O)c2c1 [29/1]
0.25 to 20	< 0.1	< 0.25	Cc1sc2nc(C(=O)NCc3ccc4c(c3)NC(=O)CO4)[nH]c(=O)c2c1C(C)c1ccccc1 (stereo not drawn) [2/373]
0.25 to 20	< 0.1	< 0.25	Cc1sc2nc(C(=O)NCc3ccc4c(c3)NC(=NC#N)CO4)[nH]c(=O)c2c1C [2/221]
< 0.25	< 0.1	0.25 to 20	O=C1COc2ccc(CNC(=O)c3nc4scc(C(F)(F)F)c4c(=O)[nH]3)cc2N1 [2/86]
< 0.25	< 0.1	< 0.25	O=C1COc2ccc(CNC(=O)c3nc4cccc(F)c4c(=O)[nH]3)cc2N1 [2/74]
0.25 to 20	< 0.1	< 0.25	CN(C)C(=O)Cc1csc2nc(C(=O)NCc3ccc4c(c3)NC(=O)CO4)[nH]c(=O)c12 [2/160]
< 0.25	< 0.1	0.25 to 20	Nc1c(N2CCc3ccc(CNC(=O)c4nc5scc(-c6ccco6)c5c(=O)[nH]4)cc3C2)c(=O)c1=O [2/98]
< 0.25	< 0.1	< 0.25	COc1cccc2nc(C(=O)NCc3ccc4c(c3)NC(=O)CO4)[nH]c(=O)c12 [Example 35]
0.25 to 20	< 0.1	< 0.25	O=C1COc2ccc(CNC(=O)c3nc4c(c(=O)[nH]3)CCCC4)cc2N1 [2/55]

Reference: patent US7713966B2, “Heterobicyclic metalloprotease inhibitors” (Alantos Pharmaceuticals Holding, Inc., priority 2006, dated 2010)
